{"source": "patent US20240270786A1", "about": "“STEROID COMPOUNDS” (Epirium Bio Inc., priority 2022, published 2024)", "key": {"[1]": {"assay": "Pharmacokinetics: quantitative determination of compounds in mice plasma", "format": "in vivo, C57BL/6 Mice", "conditions": "10 mg/kg PO single dose, vehicle 10% NMP; for AUC(0-inf) / AUC(0-t) / Cmax / Tmax: C57BL/6, mouse", "method": "(§1) C57BL/6 Mice, Age 7-9 weeks, body weight range 20-25 g were used. The mice were fasted overnight. Mice were dosed once a day for a single day at 10 mg/kg, 10 mg/kg. 6 time-points were used for whole blood. 10% NMP was used as a vehicle. 9 animals were used per treatment, with three groups of three animals each. Group 1 had time points at 15 and 60 minutes, Group 2 had time points at 30 and 120 minutes, and Group 3 had time points at 90 and 240 minutes. An Oral (PO) route was used. Plasma and brain samples were collected (brain sample collected at terminal time point). Plasma was collected through the centrifugation of whole blood at 10,000 rpm for 10 minutes at 4° C. Samples were stored at −80° C. until processing.\n(§2) 1.00 mg/mL in 100% MeOH PP vials (prepared at RT yellow light) at 2-8° C. were used as stock solution. 12.22-50000 ng/mL using 80% MeOH PP vials (prepared at RT yellow light) at 2-8° C. were used as working solution. 0.98-4000 ng/mL (prepared at RT yellow light) was used for the curve range. For Compounds 26, 40, and 50, 1.00 mg/mL of Compound 53 in 100% methanol Ria vials (Prepared at RT yellow light) was used as IS stock solution, and 80 ng/mL of Compound 53 in 80% methanol (Prepared at RT yellow light) was used as IS working solution. For Compound 36, 1.00 mg/mL of Compound 47 in 100% methanol Ria vials (Prepared at RT yellow light) was used as IS stock solution, and 80 ng/mL of Compound 47 in 80% methanol (Prepared at RT yellow light) was used as IS working solution. A linear, 1/×2 fit type was used. The injection volume was 10 μL for Compounds 26 and 36, and 5 μL for Compounds 40 and 50. Mobile Phase A was 0.1% Formic Acid in water at room temperature. Mobile Phase B was 100% methanol at room temperature. R0 wash solution was 80% methanol at room temperature. R3 wash solution was IPA/MeOH/ACN/water (1:1:1:1) at room temperature. The column was Agilent Eclipse 50*2.1 mm 1.8 μm and the instrument was Shimadzu LC-40 UPLC and AB Sciez 6500+ with LCMS002.\nUsing a pipette, 25 μL of each sample were aliquoted (calibration curve sample, QC samples and blank matrix) to labeled 1.5 ml eppendorf. Using a pipette, 5.0 μL of IS of conc. 80 ng (Cocktail IS) was aliquoted to each standards and samples except Blank. All tubes were mixed on a multi-tube vortex for approximately 30 seconds. 50 μL of 10 mM Sodium bi-carbonate were added. 1 ml of tert-butyl methyl ether (TBME) was added. All tubes were mixed on a multi-tube vortex for approximately 5 minutes then centrifuged for 10 min at 5,000 rpm for Compounds 26 and 36 and at 10,000 rpm for Compounds 40 and 50, 4° C. The sample was kept in methanol containing dry ice for few seconds to freeze the Aqueous layer (flash freeze method). The upper organic layer was poured from the frozen tubes into the labeled 12×75-mm rial vials and evaporated to dryness under nitrogen using Liquid Evaporator (30° C., ˜15 psi, ˜10 mins). 200 μl of reconstitution solution (0.1% Formic Acid: MeOH (20:80 v/v) were added into each tube. Samples were Vortexed for 30 seconds then transferred to amber glass injection vials for injection.\nAfter test item administration, blood samples were collected from individual animals in previously labeled Heparinised blood collection tubes. Blood samples were collected from retro orbital plexus. The time points for collection of blood samples from all the animals are; 0.25, 0.5, 1, 2 and 4 hr. The collected samples were subjected to centrifugation @ 10,000 rpm for 10 minutes at 40° C. for separation of plasma. Thereafter, plasma samples were collected in previously labeled plasma tubes. These were stored at −80° C. until analysis."}, "[2]": {"assay": "Pharmacokinetics: quantitative determination of compounds in mice brains", "format": "in vivo, C57BL/6 Mice", "conditions": "C57BL/6, mouse, brain, 10 mg/kg PO single dose, vehicle 10% NMP", "method": "as §1\nas §2, with “0.48-2000” for “0.98-4000”\n100 mg of brain tissue were weighed, 400 μL of Ice cold PBS was added, and samples were homogenated using polytron homogenizer. Before starting the experiment the blade was cleaned with NS, Methanol, Methanol: Water (50:50) followed by NS. Using a pipette with Methanol-rinsed pipette tips, homogenate 50 μL of each sample (calibration curve sample, QC samples and blank matrix) was aliquoted to labeled 1.5 ml Ependorfs. Using a pipette, 5.0 μL of IS of conc. 80 ng (Cocktail IS) was aliquoted to each standards and samples except Blank. All tubes were mixed on a multi-tube vortex for approximately 30 seconds. 1 ml of tert-butyl methyl ether (TBME) was added. All tubes were mixed on a multi-tube vortex for approximately 5 minutes then centrifuged for 10 min at 5,000 rpm, 4° C. The sample was kept in methanol containing dry ice for few seconds to freeze the Aqueous layer (flash freeze method). The upper organic layer was poured from the frozen tubes into the labeled 12×75-mm rial vials and evaporated to dryness under nitrogen using Liquid Evaporator (30° C., ˜15 psi, ˜10 mins). 200 μl of reconstitution solution (0.1% Formic Acid: MeOH (20:80 v/v) were added into each tube. The samples were vortexed for 30 seconds then transferred to amber glass injection vials for injection.\nAt the terminal time points, animals were euthanized after blood sample collection. Their skulls were opened and whole brains were separated and collected in previously labeled tubes. The tubes were then immediately transferred into liquid nitrogen container for snap freezing. Later the samples were stored at −80° C."}}}
{"smiles": "CN1C(=O)CC[C@@]2(C)C1=CCC1C2[C@@H](O)C[C@@]2(C)C1CC[C@@H]2NC(=O)C1CC1", "note": "(stereo partly drawn) [Compound 26, N-((4aR,5S,6aS,7S)-5-hydroxy-1,4a,6a-trimethyl-2-oxo-2,3,4,4a,4b,5,6,6a,7,8,9,9a,9b,10-tetradecahydro-1H-indeno[5,4-f]quinolin-7-yl)cyclopropanecarboxamide]", "values": [{"measurement": "T½", "setting": "[1]", "result": 1.03, "unit": "h"}, {"measurement": "AUC(0-inf)", "setting": "[1]", "result": 993, "unit": "ng·h/mL"}, {"measurement": "AUC(0-t)", "setting": "[1]", "result": 930, "unit": "ng·h/mL"}, {"measurement": "Cmax", "setting": "[1]", "result": 2130, "unit": "ng/mL"}, {"measurement": "Tmax", "setting": "[1]", "result": 0.25, "unit": "h"}, {"measurement": "AUC(0-t)", "setting": "[2]", "result": 487, "unit": "ng·h/mL"}, {"measurement": "Cmax", "setting": "[2]", "result": 433, "unit": "ng/mL"}, {"measurement": "Tmax", "setting": "[2]", "result": 1, "unit": "h"}]}
{"smiles": "CC(C)CCNC(=O)C1CCC2C3CC=C4N(C)C(=O)CC[C@]4(C)C3[C@@H](O)C[C@]12C", "note": "(stereo partly drawn) [Compound 36, (4aR,5S,6aS)-5-hydroxy-N-isopentyl-1,4a,6a-trimethyl-2-oxo-2,3,4,4a,4b,5,6,6a,7,8,9,9a,9b,10-tetradecahydro-1H-indeno[5,4-f]quinoline-7-carboxamide]", "values": [{"measurement": "T½", "setting": "[1]", "result": 1.11, "unit": "h"}, {"measurement": "AUC(0-inf)", "setting": "[1]", "result": 1640, "unit": "ng·h/mL"}, {"measurement": "AUC(0-t)", "setting": "[1]", "result": 1500, "unit": "ng·h/mL"}, {"measurement": "Cmax", "setting": "[1]", "result": 1960, "unit": "ng/mL"}, {"measurement": "Tmax", "setting": "[1]", "result": 0.25, "unit": "h"}, {"measurement": "AUC(0-t)", "setting": "[2]", "result": 1640, "unit": "ng·h/mL"}, {"measurement": "Cmax", "setting": "[2]", "result": 1160, "unit": "ng/mL"}, {"measurement": "Tmax", "setting": "[2]", "result": 1, "unit": "h"}]}
{"smiles": "CNC(=O)[C@H]1CCC2C3CC=C4N(C)C(=O)CC[C@]4(C)C3[C@@H](O)C[C@@]21C", "note": "(stereo partly drawn) [Compound 40, (4aR,5S,6aS)-5-hydroxy-N,1,4a,6a-tetramethyl-2-oxo-2,3,4,4a,4b,5,6,6a,7,8,9,9a,9b,10-tetradecahydro-1H-indeno[5,4-f] quinoline-7-carboxamide]", "values": [{"measurement": "T½", "setting": "[1]", "result": 0.933, "unit": "h"}, {"measurement": "AUC(0-inf)", "setting": "[1]", "result": 2430, "unit": "ng·h/mL"}, {"measurement": "AUC(0-t)", "setting": "[1]", "result": 2300, "unit": "ng·h/mL"}, {"measurement": "Cmax", "setting": "[1]", "result": 2200, "unit": "ng/mL"}, {"measurement": "Tmax", "setting": "[1]", "result": 0.25, "unit": "h"}, {"measurement": "AUC(0-t)", "setting": "[2]", "result": 2500, "unit": "ng·h/mL"}, {"measurement": "Cmax", "setting": "[2]", "result": 1680, "unit": "ng/mL"}, {"measurement": "Tmax", "setting": "[2]", "result": 1, "unit": "h"}]}
